Measurements from ChEMBL document CHEMBL1201862, “PubChem BioAssay data set” (2004).
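Exposure lasted 48 hours, with cells grown in 96-well plates and compounds tested at five concentrations. Abbreviation: GI50, concentration required for 50% inhibition of growth.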 The source made the active and inactive calls. Cut-off read from the data, not from the text of the source: active = GI50 up to about 1.1 µM and inactive = higher.

Tests used:
Test in all cases: growth of human tumour cells (NCI), 48 h
[1] = system: MDA-MB-435
[2] = system: U-251
[3] = system: M14
[4] = system: HCT-15
[5] = system: MDA-MB-231
[6] = system: SK-MEL-2
[7] = system: OVCAR-8
[8] = system: SK-MEL-28
[9] = system: HOP-62
[10] = system: RPMI-8226
[11] = system: MOLT-4
[12] = system: HL-60
[13] = system: IGROV-1
[14] = system: SN12C
[15] = system: CCRF-CEM
[16] = system: UO-31
[17] = system: NCI-H226
[18] = system: KM12
[19] = system: K562
[20] = system: TK-10

Row | SMILES | GI50 [1] | GI50 [2] | GI50 [3] | GI50 [4] | GI50 [5] | GI50 [6] | GI50 [7] | GI50 [8] | GI50 [9] | GI50 [10] | GI50 [11] | GI50 [12] | GI50 [13] | GI50 [14] | GI50 [15] | GI50 [16] | GI50 [17] | GI50 [18] | GI50 [19] | GI50 [20]
1 | CCC12CC(c3ccccc3)C(C(=O)N1)C(=O)N2 (configuration not stated) | > 100 µM (inactive) | > 100 µM (inactive) | > 100 µM (inactive) | > 100 µM | > 100 µM (inactive) | > 100 µM (inactive) | > 100 µM (inactive) | > 100 µM (inactive) | > 100 µM (inactive) | > 100 µM (inactive) | > 100 µM (inactive) | > 100 µM (inactive) | > 100 µM (inactive) | > 100 µM (inactive) | > 100 µM (inactive) | > 100 µM (inactive) | > 100 µM (inactive) | > 100 µM (inactive) | > 100 µM (inactive) | –
2 | COc1ccc(C(Nc2ncccn2)c2cc3c(cc2O)OCO3)cc1 (configuration not stated) | 19.9 µM (inactive) | 15.4 µM (inactive) | 20.6 µM (inactive) | 18.8 µM | 21.3 µM (inactive) | 20.7 µM (inactive) | 19.2 µM (inactive) | 22.3 µM (inactive) | 22.4 µM (inactive) | 22.8 µM (inactive) | 26.3 µM (inactive) | 16.4 µM (inactive) | 23 µM (inactive) | 17.4 µM (inactive) | – | 17.1 µM (inactive) | 21.7 µM (inactive) | 17.9 µM (inactive) | 23.1 µM (inactive) | 18.6 µM (inactive)
3 | CC1OC(O[C@H]2C3C=CO[C@@H](OC4OC(CO)C(O)C(O)C4O)C3[C@@]3(COC(=O)/C=C/c4ccc(O)cc4)O[C@@H]23)C(O)C(O)C1O (some centres not stated) | > 100 µM (inactive) | > 100 µM (inactive) | > 100 µM (inactive) | > 100 µM | > 100 µM (inactive) | > 100 µM (inactive) | > 100 µM (inactive) | > 100 µM (inactive) | > 100 µM (inactive) | > 100 µM (inactive) | > 100 µM (inactive) | > 100 µM (inactive) | > 100 µM (inactive) | > 100 µM (inactive) | – | > 100 µM (inactive) | > 100 µM (inactive) | > 100 µM (inactive) | > 100 µM (inactive) | > 100 µM (inactive)
4 | CC1=C(C(=O)N[C@@H](CC(C)C)C(=O)O)N2C(=O)[C@@H](NC(=O)[C@@H](N)Cc3ccccc3)[C@H]2SC1 | > 100 µM (inactive) | > 100 µM (inactive) | > 100 µM (inactive) | > 100 µM | > 100 µM (inactive) | > 100 µM (inactive) | > 100 µM (inactive) | > 100 µM (inactive) | – | > 100 µM (inactive) | > 100 µM (inactive) | > 100 µM (inactive) | > 100 µM (inactive) | > 100 µM (inactive) | > 100 µM (inactive) | – | > 100 µM (inactive) | > 100 µM (inactive) | > 100 µM (inactive) | > 100 µM (inactive)
5 | COc1cc(C(c2cc(OC)c(OC)c(OC)c2)N2C(=O)CCC2C(=O)O)cc(OC)c1OC (configuration not stated) | > 100 µM (inactive) | > 100 µM (inactive) | > 100 µM (inactive) | > 100 µM | > 100 µM (inactive) | > 100 µM (inactive) | > 100 µM (inactive) | > 100 µM (inactive) | > 100 µM (inactive) | > 100 µM (inactive) | > 100 µM (inactive) | > 100 µM (inactive) | > 100 µM (inactive) | > 100 µM (inactive) | > 100 µM (inactive) | > 100 µM (inactive) | > 100 µM (inactive) | > 100 µM (inactive) | > 100 µM (inactive) | –
6 | COc1cc2cnc(-c3ccccc3)cc2cc1OC | 26.9 µM (inactive) | 19.8 µM (inactive) | 30.7 µM (inactive) | 19 µM | 19.1 µM (inactive) | 23 µM (inactive) | 26.5 µM (inactive) | 33.5 µM (inactive) | 56.1 µM (inactive) | 15.9 µM (inactive) | 20 µM (inactive) | 20.3 µM (inactive) | 19.1 µM (inactive) | 3.5 µM (inactive) | – | 29.5 µM (inactive) | 17.7 µM (inactive) | 26.9 µM (inactive) | 30.1 µM (inactive) | 25.7 µM (inactive)
7 | COc1ccc(Cc2cc(Cc3ccc(OC)cc3)cc(Cc3ccc(OC)cc3)c2)cc1 | 13.6 µM (inactive) | > 100 µM (inactive) | > 100 µM (inactive) | > 100 µM | > 100 µM (inactive) | > 100 µM (inactive) | > 100 µM (inactive) | > 100 µM (inactive) | > 100 µM (inactive) | > 100 µM (inactive) | > 100 µM (inactive) | > 100 µM (inactive) | > 100 µM (inactive) | > 100 µM (inactive) | – | > 100 µM (inactive) | > 100 µM (inactive) | > 100 µM (inactive) | > 100 µM (inactive) | > 100 µM (inactive)
